Active and inactive are the calls of the source. The rule behind the calls is not given here.
How the values were obtained:
NCI-H1792 [1] = test: Antiproliferative activity against human NCI-H1792 cells harboring heterozygous KRAS G12C mutant assessed as inhibition of cell growth incubated for 72 hrs by MTT assay; format: functional, cell-based; settings: NCI-H1792, 72 h
MIA PaCa-2 = test: Antiproliferative activity against human MIA PaCa-2 cells harboring homozygous KRAS G12C mutant assessed as inhibition of cell growth incubated for 72 hrs by MTT assay; format: functional, cell-based; settings: MIA PaCa-2, 72 h
NCI-H358 = test: Antiproliferative activity against human NCI-H358 cells harboring heterozygous KRAS G12C mutant assessed as inhibition of cell growth incubated for 72 hrs by MTT assay; format: functional, cell-based; settings: NCI-H358, 72 h
[2] = Antiproliferative activity against human HCA-7 cells harboring wild type KRAS assessed as inhibition of cell growth incubated for 72 hrs by MTT assay; format: functional, cell-based, HCA7; settings: HCA-7, 72 h
[3] = Cytotoxicity against HUVEC cells immortalized with TERT assessed as inhibition of cell growth incubated for 72 hrs by MTT assay; format: toxicity, cell-based; settings: human
[4] = Cytotoxicity against human CCD-986Sk cells assessed as inhibition of cell growth incubated for 72 hrs by MTT assay; format: toxicity, cell-based
[5] = Cmax in NOD-SCID mouse at 15 mg/kg, ip administered as single dose and measured upto 48 hrs by HPLC/MS analysis; format: ADME, organism-based; parameters: time < 48 hrs, dose 15 mg/kg, route ip; settings: in vivo
[6] = Tmax in NOD-SCID mouse at 15 mg/kg, ip administered as single dose and measured upto 48 hrs by HPLC/MS analysis; format: ADME, organism-based; settings: in vivo
[7] = Half life in NOD-SCID mouse at 15 mg/kg, ip administered as single dose and measured upto 48 hrs by HPLC/MS analysis; format: ADME, organism-based; settings: in vivo
[8] = AUCt in NOD-SCID mouse at 15 mg/kg, ip administered as single dose and measured upto 48 hrs by HPLC/MS analysis; format: ADME, organism-based; parameters: dose 15 mg/kg, time < 48 hrs, route ip; settings: in vivo
[9] = Volume of distribution in NOD-SCID mouse at 15 mg/kg, ip administered as single dose and measured upto 48 hrs by HPLC/MS analysis; format: ADME, organism-based; settings: in vivo
[10] = Clearance in NOD-SCID mouse at 15 mg/kg, ip administered as single dose and measured upto 48 hrs by HPLC/MS analysis; format: ADME, organism-based; settings: in vivo
Homo sapiens [11] = species on record: Homo sapiens; test: Inhibition of GDP-bound human KRAS 149stop G12C mutant expressed in Escherichia coli BL21 Rosetta cells assessed as inhibition of EDTA mediated nucleotide exchange at 250 uM measured after 24 hrs by fluorescence based analysis
Homo sapiens [12] = species on record: Homo sapiens; test: Inhibition of GDP-bound human KRAS 149stop G12C mutant expressed in Escherichia coli BL21 Rosetta cells assessed as inhibition of SOS1 mediated nucleotide exchange at 250 uM measured after 24 hrs by fluorescence based analysis
[13] = (§1) Toxicity in immunodeficient NOD-SCID mouse xenografted with human NCI-H1792 cells harboring KRAS G12C mutant assessed as body weight at 5 to 30 mg/kg, ip administered for 5 times at 5 mg/kg in first week followed by administration at 20 mg/kg 5 times in second week and further administered 30 mg/kg 3 times in third week measured 17 days post treatment initiation and 35 days post tumor transplantation (reference value: 6.6 g); format: organism-based; settings: in vivo, 408 h, dose 5-30 mg/kg, time 17 day
[14] = as §1, with “LCLC-103H” for “NCI-H1792”, “harboring wild type” for “harboring”, “KRAS” for “KRAS G12C mutant”, “2.6” for “6.6”; format: organism-based; settings: in vivo, 408 h, dose 5-30 mg/kg, time 17 day
LCLC-103H cell line [15] = test: Antitumor activity against human LCLC-103H cells harboring wild type KRAS xenografted in immunodeficient NOD-SCID mouse assessed as tumor volume at 5 to 30 mg/kg, ip administered for 5 times at 5 mg/kg in first week followed by administration at 20 mg/kg 5 times in second week and further administered 30 mg/kg 3 times in third week measured 17 days post treatment initiation and 35 days post tumor transplantation by digital caliper based analysis; format: functional; settings: dose 5-30 mg/kg, time 17 day
NCI-H1792 [16] = test: Antitumor activity against human NCI-H1792 cells harboring KRAS G12C mutant xenografted in immunodeficient NOD-SCID mouse assessed as reduction in tumor growth at 5 to 30 mg/kg, ip administered for 5 times at 5 mg/kg in first week followed by administration at 20 mg/kg 5 times in second week and further administered 30 mg/kg 3 times in third week measured 17 days post treatment initiation and 35 days post tumor transplantation by digital caliper based analysis relative to control; format: functional; parameters: scale not given: the % may be the effect or the level left; settings: dose 5-30 mg/kg, time 17 day
NCI-H1792 [17] = test: Antiproliferative activity against human NCI-H1792 cells harboring KRAS G12C mutant assessed as cell viability at 25 uM incubated for 72 hrs by MTT assay relative to control; format: functional; settings: read-out: Activity
NCI-H1792 [18] = test: Antiproliferative activity against human NCI-H1792 cells harboring KRAS G12C mutant assessed as reduction in cell viability at 2.5 uM incubated for 72 hrs by MTT assay; format: functional, cell-based
SW1573 = test: Antiproliferative activity against human SW1573 cells harboring homozygous KRAS G12C mutant assessed as inhibition of cell growth incubated for 72 hrs by MTT assay; format: functional, cell-based; settings: SW1573, 72 h
A549 = test: Antiproliferative activity against human A549 cells harboring homozygous KRAS G12S mutant assessed as inhibition of cell growth incubated for 72 hrs by MTT assay; format: functional, cell-based; settings: A549, 72 h
SW480 = test: Antiproliferative activity against human SW480 cells harboring homozygous KRAS G12V mutant assessed as inhibition of cell growth incubated for 72 hrs by MTT assay; format: functional, cell-based; settings: SW480, 72 h
PANC-1 = test: Antiproliferative activity against human PANC-1 cells harboring heterozygous KRAS G12D mutant assessed as inhibition of cell growth incubated for 72 hrs by MTT assay; format: functional, cell-based; settings: PANC-1, 72 h
LCLC-103H cell line [19] = test: Antiproliferative activity against human LCLC-103H cells harboring wild type KRAS assessed as inhibition of cell growth incubated for 72 hrs by MTT assay; format: functional, cell-based
BXPC-3 = test: Antiproliferative activity against human BXPC-3 cells harboring wild type KRAS assessed as inhibition of cell growth incubated for 72 hrs by MTT assay; format: functional, cell-based; settings: BXPC-3, 72 h
[20] = Cytotoxicity against human MRC5 cells assessed as inhibition of cell growth incubated for 72 hrs by MTT assay; format: toxicity, cell-based
[21] = Selectivity ratio of IC50 for human LCLC-103H cells harboring wild type KRAS to IC50 for human NCI-H1792 cells harboring […] KRAS G12C mutant; format: functional
Homo sapiens [22] = species on record: Homo sapiens; test: Selectivity ratio of IC50 for human MRC5 cells to IC50 for human NCI-H1792 cells harboring homozygous KRAS G12C mutant
[23] = Selectivity ratio of IC50 for human LCLC-103H cells harboring wild type KRAS to IC50 for human SW1573 cells harboring homozygous KRAS G12C mutant; format: functional
[24] = Selectivity ratio of IC50 for human MRC5 cells to IC50 for human SW1573 cells harboring homozygous KRAS G12C mutant; format: toxicity; settings: MRC5 cells versus SW1573 cells (homozygous KRAS G12C mutant), read-out: Ratio IC50
[25] = Selectivity ratio of IC50 for human BXPC-3 cells harboring wild type KRAS to IC50 for human MIA PaCa-2 cells harboring homozygous KRAS G12C mutant; format: functional
Homo sapiens [26] = species on record: Homo sapiens; test: Selectivity ratio of IC50 for human MRC5 cells to IC50 for human MIA PaCa-2 cells harboring homozygous KRAS G12C mutant
[27] = Selectivity ratio of IC50 for human LCLC-103H cells harboring wild type KRAS to IC50 for human NCI-H358 cells harboring heterozygous KRAS G12C mutant; format: functional
Homo sapiens [28] = species on record: Homo sapiens; test: Selectivity ratio of IC50 for human MRC5 cells to IC50 for human NCI-H358 cells harboring heterozygous KRAS G12C mutant
[29] = Selectivity ratio of IC50 for human LCLC-103H cells harboring wild type KRAS to IC50 for human A549 cells harboring homozygous KRAS G12S mutant; format: functional
[30] = Selectivity ratio of IC50 for human BXPC-3 cells harboring wild type KRAS to IC50 for human PANC-1 cells harboring heterozygous KRAS G12D mutant; format: functional

Q: Which IC50 (NCI-H1792 [1]) does the source give for `C=CC(=O)N1CCN(c2ncnc3c(F)c(-c4c(O)cccc4F)c(Cl)cc23)CC1` here?
A: The IC50 was 10.9 µM.

Q: What about the IC50 (MIA PaCa-2) of the same compound?
A: The IC50 was 0.5 µM.

Q: And the IC50 (NCI-H358)?
A: The IC50 was 0.3 µM.

Q: And the IC50 [2]?
A: Its IC50 is 23.4 µM.

Q: What about the IC50 at 72 h [3] of the same compound?
A: Its IC50 at 72 h is 0.7 µM.

Q: What about the IC50 at 72 h [4] of the same compound?
A: Its IC50 at 72 h is 52.2 µM.

Q: And the Cmax [5]?
A: Its Cmax is 5850 ng/mL.

Q: What about the Tmax [6] of the same compound?
A: Its Tmax is 0.25 h.

Q: And the half-life [7]?
A: Its half-life is 2.9 h.

Q: What about the AUC(0-t) at 48 h [8] of the same compound?
A: The AUC(0-t) at 48 h was 3740 ng·h/mL.

Q: What about the Vd [9] of the same compound?
A: Its Vd is 363 mL.

Q: And the CL/F [10]?
A: Its CL/F is 1.37 mL/min.

Q: And the inhibition (Homo sapiens [11])?
A: Its inhibition is “Active”.

Q: And the inhibition (Homo sapiens [12])?
A: The inhibition was “Active”.

Q: And the Activity [13]?
A: Its Activity is 3.7 g.

Q: And the Activity [14]?
A: Its Activity is 0.8 g.

Q: What about the Activity (LCLC-103H cell line [15]) of the same compound?
A: Its Activity is 7.9 mm3.

Q: And the Activity (NCI-H1792 [16])?
A: The Activity was 17.9%.

Q: What about the viability at 25 µM (NCI-H1792 [17]) of the same compound?
A: Its viability at 25 µM is under 50%.

Q: And the Activity (NCI-H1792 [18])?
A: The Activity was “Active”.

Q: Which IC50 (NCI-H1792 [1]) does the source give for `C=CC(=O)N1CC(N2CCN(C(=O)CNc3cc(C4(C)CC4)c(Cl)cc3O)CC2)C1` here?
A: The IC50 was 27.9 µM.

Q: What about the IC50 (SW1573) of the same compound?
A: The IC50 was 25.9 µM.

Q: What about the IC50 (MIA PaCa-2) of the same compound?
A: The IC50 was 5.8 µM.

Q: What about the IC50 (NCI-H358) of the same compound?
A: Its IC50 is 6.9 µM.

Q: And the IC50 (A549)?
A: The IC50 was 35.2 µM.

Q: What about the IC50 (SW480) of the same compound?
A: Its IC50 is 27.8 µM.

Q: And the IC50 (PANC-1)?
A: Its IC50 is 58.2 µM.

Q: What about the IC50 (LCLC-103H cell line [19]) of the same compound?
A: The IC50 was 41.5 µM.

Q: And the IC50 (BXPC-3)?
A: The IC50 was 36.8 µM.

Q: What about the IC50 at 72 h [20] of the same compound?
A: Its IC50 at 72 h is 75.3 µM.

Q: And the “Ratio IC50” value [21]?
A: The value was 1.5.

Q: And the Ratio IC50 (Homo sapiens [22])?
A: The Ratio IC50 was 2.7.

Q: And the “Ratio IC50” value [23]?
A: Its value is 1.6.

Q: And the selectivity ratio [24]?
A: Its selectivity ratio is 2.9.

Q: And the “Ratio IC50” value [25]?
A: Its value is 6.4.

Q: What about the Ratio IC50 (Homo sapiens [26]) of the same compound?
A: Its Ratio IC50 is 13.

Q: And the “Ratio IC50” value [27]?
A: Its value is 6.

Q: What about the Ratio IC50 (Homo sapiens [28]) of the same compound?
A: Its Ratio IC50 is 11.

Q: And the “Ratio IC50” value [29]?
A: The value was 1.2.

Q: And the “Ratio IC50” value [30]?
A: Its value is 0.6.

Q: And the inhibition (Homo sapiens [11])?
A: Its inhibition is “Active”.

Q: And the inhibition (Homo sapiens [12])?
A: The inhibition was “Active”.

Q: What about the viability at 25 µM (NCI-H1792 [17]) of the same compound?
A: The viability at 25 µM was under 50%.

Q: And the Activity (NCI-H1792 [18])?
A: Its Activity is “Active”.
